Data published in paper PMC8053108, “RPA2 winged-helix domain facilitates UNG-mediated removal of uracil from ssDNA; implications for repair of mutagenic uracil at the replication fork” (Nucleic Acids Research, 2021).

Test system: UNG2 or N-terminally truncated versions
Experiment: Uracil excision in presence of increasing amounts of purified free WH domain
Assay type: biochemical, human
Details: 0.4 nM enzyme, 0-50 μM purified WH domain, 100 nM DNA
Experimental: 3′-FAM-labelled, PAGE-purified oligonucleotide substrates were from Sigma-Aldrich. Unless otherwise indicated, the substrate (25 nt) harboured uracil at position 10 in a polyC sequence to avoid secondary structures (U10-25*: […]-FAM). Double-stranded substrate was generated by annealing (heating followed by slow cooling) U10-25* to a non-labelled complementary oligo (A16-25: […]). All assays were performed at 22°C in 10 mM Tris–HCl pH 7.5, 50 mM NaCl, 1 mM DTT, 0.1 mM EDTA, 0.5 mg/ml BSA.
Varying amounts of UNG were then added, and the mixtures incubated for 10 min in a water bath. To avoid unspecific interactions and binding of enzyme and DNA to the assay tube surface, low-DNA binding tubes and excess of BSA was used in all reactions. Reactions were quenched and AP sites cleaved in 10% piperidine at 90°C for 20 min. Samples were dried by vacuum centrifugation and suspended in formamide-containing loading buffer. Product and substrate were separated in 12% PAGE/7M urea–0.5× TBE gels, bands visualised in ChemiDoc™ Imager (Bio-Rad) and quantified by Image Lab software (Bio-Rad). Importantly, all assays in which two parameters were compared (e.g. RPA-coated versus naked substrate or WT versus mutated protein) were performed in parallel with the exact same DNA/protein dilutions.

Substance: WH domain: purified RPA2-WH domain, RPA2 residues 172-270
- effect on uracil excision from naked ss- and dsDNA substrates: little effect
- effect on uracil excision from RPA-bound ss- and dsDNA substrates (RPA-bound): markedly reduced
